The source made the active and inactive calls.
Tests used:
[1] = biological target: T1, Histone-lysine N-methyltransferase NSD2 (Homo sapiens, UniProt O96028); format: biochemical
T1 sequence (O96028 whole entry): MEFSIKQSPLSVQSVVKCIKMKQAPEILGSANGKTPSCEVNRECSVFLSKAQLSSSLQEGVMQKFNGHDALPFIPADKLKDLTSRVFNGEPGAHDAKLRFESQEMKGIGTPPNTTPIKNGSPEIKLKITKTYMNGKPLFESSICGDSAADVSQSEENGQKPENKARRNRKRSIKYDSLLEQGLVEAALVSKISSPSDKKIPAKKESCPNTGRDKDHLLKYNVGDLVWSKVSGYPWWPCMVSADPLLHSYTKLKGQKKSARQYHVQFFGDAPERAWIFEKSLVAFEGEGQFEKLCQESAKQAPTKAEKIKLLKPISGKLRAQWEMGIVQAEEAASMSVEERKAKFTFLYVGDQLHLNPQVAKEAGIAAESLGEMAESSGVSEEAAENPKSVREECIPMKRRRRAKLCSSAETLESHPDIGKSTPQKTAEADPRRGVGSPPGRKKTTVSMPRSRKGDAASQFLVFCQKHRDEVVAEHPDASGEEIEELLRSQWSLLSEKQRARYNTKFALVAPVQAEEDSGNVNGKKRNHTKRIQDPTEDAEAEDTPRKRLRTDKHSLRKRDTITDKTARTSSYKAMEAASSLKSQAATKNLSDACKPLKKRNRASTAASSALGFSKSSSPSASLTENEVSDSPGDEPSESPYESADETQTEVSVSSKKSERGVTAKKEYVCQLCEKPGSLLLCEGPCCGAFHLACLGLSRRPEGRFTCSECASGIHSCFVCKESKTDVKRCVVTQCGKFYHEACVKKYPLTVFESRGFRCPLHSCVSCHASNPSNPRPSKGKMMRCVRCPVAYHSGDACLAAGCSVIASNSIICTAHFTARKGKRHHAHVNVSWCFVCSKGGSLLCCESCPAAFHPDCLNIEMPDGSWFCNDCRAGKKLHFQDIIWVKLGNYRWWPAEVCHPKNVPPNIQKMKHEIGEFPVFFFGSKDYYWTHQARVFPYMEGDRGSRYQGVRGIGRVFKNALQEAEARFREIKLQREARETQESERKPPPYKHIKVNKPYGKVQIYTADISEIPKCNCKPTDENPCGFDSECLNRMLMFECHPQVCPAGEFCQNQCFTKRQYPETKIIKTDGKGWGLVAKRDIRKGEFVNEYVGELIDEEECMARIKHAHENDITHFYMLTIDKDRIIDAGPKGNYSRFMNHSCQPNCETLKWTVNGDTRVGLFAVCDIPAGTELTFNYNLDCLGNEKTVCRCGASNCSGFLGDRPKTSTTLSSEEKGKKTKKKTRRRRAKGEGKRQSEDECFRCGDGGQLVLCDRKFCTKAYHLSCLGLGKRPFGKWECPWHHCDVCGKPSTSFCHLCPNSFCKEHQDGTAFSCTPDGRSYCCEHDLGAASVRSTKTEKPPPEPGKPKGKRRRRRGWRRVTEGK

INS1 = experiment: INS-1E survival protection against cytokine death – cell-based, luminescence, retest, dose response (AID 449756); format: functional; conditions: Rattus norvegicus;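 note: cell death triggered by IL-1 beta plus TNF-alpha plus IFN-gamma mixture; protective hits raise ATP signal compared with cytokine alone wells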
[2] = biological target: Dual specificity mitogen-activated protein kinase kinase 1 (Homo sapiens, UniProt Q02750); experiment: Navigating the Kinome. Panel member name: MAP2K1; format: functional
[3] = biological target: Tyrosine-protein kinase JAK2 (Homo sapiens, UniProt O60674); format: functional;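 note: JAK2 tested as one member of a kinase panel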
[4] = biological target: Proto-oncogene tyrosine-protein kinase receptor Ret (Homo sapiens, UniProt P07949); format: functional;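 note: measured within a kinome-wide profiling panel, RET as the panel member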
Activin receptor type-1 = Activin receptor type-1 (Homo sapiens, UniProt Q04771); experiment: Navigating the Kinome. Panel member name: ACVR1; format: functional
Aurora kinase A = biological target: T2, Aurora kinase A (Homo sapiens, UniProt O14965); format: functional;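 note: value from the Navigating the Kinome kinase panel profiling, panel entry STK6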
T2 sequence (O14965 whole entry): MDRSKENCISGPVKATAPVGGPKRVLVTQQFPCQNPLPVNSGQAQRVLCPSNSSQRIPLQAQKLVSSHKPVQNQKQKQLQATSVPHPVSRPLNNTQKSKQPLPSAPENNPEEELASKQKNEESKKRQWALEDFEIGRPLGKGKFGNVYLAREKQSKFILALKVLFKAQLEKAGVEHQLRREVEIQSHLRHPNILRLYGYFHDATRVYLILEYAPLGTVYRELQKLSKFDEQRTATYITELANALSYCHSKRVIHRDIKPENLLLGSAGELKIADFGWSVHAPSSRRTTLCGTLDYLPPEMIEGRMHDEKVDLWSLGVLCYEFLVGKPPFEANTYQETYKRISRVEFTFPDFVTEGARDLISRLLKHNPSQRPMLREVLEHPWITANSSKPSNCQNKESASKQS

[5] = biological target: Hepatocyte growth factor receptor (Homo sapiens, UniProt P08581); format: functional;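 note: kinase panel profiling across the kinome, with MET as the panel member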
[6] = biological target: Tyrosine-protein kinase ABL1 (Homo sapiens, UniProt P00519); format: functional
[7] = biological target: Rho-associated protein kinase 1 (Homo sapiens, UniProt Q13464); format: functional;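 note: measured within a broad kinome-wide panel profiling many kinases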
[8] = biological target: Cyclin-dependent kinase 9 (Homo sapiens, UniProt P50750); format: functional;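 note: value from the CDK9 entry of a kinome-spanning kinase panel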
[9] = biological target: BDNF/NT-3 growth factors receptor (Homo sapiens, UniProt Q16620); format: functional;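 note: NTRK2 measured as one member of a broad kinome-wide kinase profiling panel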
[10] = biological target: Macrophage colony-stimulating factor 1 receptor (Homo sapiens, UniProt P07333); format: functional;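 note: value comes from the Navigating the Kinome screening panel, CSF1R member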
Sequence of Macrophage colony-stimulating factor 1 receptor (P07333 whole entry): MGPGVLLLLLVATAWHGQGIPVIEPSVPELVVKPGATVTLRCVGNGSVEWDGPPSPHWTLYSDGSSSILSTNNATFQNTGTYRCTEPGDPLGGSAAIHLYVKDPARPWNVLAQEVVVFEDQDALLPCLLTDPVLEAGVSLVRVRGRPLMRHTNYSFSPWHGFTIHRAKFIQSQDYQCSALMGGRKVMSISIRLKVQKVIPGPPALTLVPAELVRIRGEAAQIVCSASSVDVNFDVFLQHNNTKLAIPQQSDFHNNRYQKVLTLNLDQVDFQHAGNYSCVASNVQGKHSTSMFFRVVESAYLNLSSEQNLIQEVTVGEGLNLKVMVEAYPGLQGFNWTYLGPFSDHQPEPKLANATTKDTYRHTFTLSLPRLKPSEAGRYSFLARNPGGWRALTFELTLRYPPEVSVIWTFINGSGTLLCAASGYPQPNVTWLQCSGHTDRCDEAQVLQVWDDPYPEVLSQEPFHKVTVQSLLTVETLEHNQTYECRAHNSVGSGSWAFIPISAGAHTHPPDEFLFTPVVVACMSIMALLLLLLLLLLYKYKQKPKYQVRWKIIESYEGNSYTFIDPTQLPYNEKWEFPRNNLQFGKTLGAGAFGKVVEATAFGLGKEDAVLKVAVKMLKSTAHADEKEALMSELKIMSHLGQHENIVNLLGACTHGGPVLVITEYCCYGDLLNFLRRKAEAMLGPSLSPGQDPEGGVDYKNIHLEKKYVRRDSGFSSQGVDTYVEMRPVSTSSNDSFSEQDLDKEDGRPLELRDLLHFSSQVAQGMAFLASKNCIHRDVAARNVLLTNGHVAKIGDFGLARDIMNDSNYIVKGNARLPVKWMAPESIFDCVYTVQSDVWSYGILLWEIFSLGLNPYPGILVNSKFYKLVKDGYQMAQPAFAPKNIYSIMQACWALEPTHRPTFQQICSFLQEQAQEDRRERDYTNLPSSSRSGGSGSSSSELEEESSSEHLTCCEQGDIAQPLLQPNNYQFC

Sequence of BDNF/NT-3 growth factors receptor (Q16620 whole entry): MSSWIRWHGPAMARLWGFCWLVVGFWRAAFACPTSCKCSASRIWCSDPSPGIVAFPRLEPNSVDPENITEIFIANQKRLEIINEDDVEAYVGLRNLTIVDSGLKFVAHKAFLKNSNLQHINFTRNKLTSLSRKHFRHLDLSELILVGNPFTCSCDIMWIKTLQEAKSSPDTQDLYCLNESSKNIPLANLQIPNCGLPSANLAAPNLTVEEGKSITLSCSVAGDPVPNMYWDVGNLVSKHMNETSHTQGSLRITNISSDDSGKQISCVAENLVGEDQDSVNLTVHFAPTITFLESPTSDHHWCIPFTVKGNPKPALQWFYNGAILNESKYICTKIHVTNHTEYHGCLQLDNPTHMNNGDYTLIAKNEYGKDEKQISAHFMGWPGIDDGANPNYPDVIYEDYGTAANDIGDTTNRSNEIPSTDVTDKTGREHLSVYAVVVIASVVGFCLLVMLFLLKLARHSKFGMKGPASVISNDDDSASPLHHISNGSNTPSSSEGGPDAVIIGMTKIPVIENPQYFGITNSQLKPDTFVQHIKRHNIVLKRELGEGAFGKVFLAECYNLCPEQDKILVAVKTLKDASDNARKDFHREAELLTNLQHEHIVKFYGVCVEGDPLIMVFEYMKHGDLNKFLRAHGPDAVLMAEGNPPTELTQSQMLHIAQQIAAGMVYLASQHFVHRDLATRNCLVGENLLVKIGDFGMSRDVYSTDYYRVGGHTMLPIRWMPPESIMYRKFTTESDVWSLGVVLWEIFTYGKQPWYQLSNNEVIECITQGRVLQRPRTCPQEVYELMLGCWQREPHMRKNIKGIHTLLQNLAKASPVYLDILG
Sequence of Dual specificity mitogen-activated protein kinase kinase 1 (Q02750 whole entry): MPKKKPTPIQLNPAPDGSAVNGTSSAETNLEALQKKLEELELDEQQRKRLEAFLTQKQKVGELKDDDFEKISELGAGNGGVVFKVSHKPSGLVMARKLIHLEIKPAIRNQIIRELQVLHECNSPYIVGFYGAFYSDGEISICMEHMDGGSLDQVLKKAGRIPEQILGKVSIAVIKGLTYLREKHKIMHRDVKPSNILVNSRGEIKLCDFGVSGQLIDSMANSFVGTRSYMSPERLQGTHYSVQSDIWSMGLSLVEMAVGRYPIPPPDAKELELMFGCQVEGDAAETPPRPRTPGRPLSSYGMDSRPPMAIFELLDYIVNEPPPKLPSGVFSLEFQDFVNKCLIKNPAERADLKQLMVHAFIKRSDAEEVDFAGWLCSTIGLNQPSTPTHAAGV
Sequence of Activin receptor type-1 (Q04771 whole entry): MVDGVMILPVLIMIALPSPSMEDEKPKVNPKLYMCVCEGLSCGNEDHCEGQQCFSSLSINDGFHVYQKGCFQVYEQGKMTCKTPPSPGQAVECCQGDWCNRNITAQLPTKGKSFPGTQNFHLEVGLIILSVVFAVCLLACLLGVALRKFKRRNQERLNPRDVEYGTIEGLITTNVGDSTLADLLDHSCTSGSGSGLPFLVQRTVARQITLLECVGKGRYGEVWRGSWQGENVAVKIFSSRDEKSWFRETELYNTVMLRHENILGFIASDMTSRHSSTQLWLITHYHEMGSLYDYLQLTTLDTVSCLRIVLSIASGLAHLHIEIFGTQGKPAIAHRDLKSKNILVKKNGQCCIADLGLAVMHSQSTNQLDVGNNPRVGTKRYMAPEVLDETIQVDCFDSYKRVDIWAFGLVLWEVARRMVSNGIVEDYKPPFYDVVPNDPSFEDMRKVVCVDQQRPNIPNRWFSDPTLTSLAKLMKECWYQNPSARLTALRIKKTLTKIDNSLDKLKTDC
Sequence of Proto-oncogene tyrosine-protein kinase receptor Ret (P07949 whole entry): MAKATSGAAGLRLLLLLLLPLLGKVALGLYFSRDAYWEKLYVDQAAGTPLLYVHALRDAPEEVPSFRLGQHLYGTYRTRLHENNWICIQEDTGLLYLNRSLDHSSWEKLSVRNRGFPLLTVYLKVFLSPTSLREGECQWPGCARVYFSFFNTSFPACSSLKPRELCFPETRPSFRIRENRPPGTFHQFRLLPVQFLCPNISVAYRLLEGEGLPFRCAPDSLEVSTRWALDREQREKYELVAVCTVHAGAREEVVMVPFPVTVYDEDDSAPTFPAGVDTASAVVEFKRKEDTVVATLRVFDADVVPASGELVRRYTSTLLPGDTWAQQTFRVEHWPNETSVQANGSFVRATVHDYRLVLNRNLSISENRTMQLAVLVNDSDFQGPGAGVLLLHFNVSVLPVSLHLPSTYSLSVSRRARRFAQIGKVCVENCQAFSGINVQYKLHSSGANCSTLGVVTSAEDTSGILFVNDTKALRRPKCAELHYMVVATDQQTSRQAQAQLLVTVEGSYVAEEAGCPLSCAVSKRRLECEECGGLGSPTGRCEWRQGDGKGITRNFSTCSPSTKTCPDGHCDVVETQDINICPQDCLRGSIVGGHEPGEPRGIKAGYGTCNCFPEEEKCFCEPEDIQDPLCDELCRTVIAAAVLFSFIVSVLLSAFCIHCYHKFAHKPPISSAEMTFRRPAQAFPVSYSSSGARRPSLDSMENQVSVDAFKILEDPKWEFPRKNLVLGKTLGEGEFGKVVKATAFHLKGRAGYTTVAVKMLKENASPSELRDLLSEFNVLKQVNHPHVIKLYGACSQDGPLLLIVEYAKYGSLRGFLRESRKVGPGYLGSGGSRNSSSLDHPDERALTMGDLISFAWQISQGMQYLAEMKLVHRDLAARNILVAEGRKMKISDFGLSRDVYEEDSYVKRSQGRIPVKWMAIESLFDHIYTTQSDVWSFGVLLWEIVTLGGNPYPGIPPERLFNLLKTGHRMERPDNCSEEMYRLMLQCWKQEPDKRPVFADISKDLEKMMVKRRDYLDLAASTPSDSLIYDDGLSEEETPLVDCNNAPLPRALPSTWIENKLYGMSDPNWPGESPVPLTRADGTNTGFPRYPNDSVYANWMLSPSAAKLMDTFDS
Sequence of Tyrosine-protein kinase ABL1 (P00519 whole entry): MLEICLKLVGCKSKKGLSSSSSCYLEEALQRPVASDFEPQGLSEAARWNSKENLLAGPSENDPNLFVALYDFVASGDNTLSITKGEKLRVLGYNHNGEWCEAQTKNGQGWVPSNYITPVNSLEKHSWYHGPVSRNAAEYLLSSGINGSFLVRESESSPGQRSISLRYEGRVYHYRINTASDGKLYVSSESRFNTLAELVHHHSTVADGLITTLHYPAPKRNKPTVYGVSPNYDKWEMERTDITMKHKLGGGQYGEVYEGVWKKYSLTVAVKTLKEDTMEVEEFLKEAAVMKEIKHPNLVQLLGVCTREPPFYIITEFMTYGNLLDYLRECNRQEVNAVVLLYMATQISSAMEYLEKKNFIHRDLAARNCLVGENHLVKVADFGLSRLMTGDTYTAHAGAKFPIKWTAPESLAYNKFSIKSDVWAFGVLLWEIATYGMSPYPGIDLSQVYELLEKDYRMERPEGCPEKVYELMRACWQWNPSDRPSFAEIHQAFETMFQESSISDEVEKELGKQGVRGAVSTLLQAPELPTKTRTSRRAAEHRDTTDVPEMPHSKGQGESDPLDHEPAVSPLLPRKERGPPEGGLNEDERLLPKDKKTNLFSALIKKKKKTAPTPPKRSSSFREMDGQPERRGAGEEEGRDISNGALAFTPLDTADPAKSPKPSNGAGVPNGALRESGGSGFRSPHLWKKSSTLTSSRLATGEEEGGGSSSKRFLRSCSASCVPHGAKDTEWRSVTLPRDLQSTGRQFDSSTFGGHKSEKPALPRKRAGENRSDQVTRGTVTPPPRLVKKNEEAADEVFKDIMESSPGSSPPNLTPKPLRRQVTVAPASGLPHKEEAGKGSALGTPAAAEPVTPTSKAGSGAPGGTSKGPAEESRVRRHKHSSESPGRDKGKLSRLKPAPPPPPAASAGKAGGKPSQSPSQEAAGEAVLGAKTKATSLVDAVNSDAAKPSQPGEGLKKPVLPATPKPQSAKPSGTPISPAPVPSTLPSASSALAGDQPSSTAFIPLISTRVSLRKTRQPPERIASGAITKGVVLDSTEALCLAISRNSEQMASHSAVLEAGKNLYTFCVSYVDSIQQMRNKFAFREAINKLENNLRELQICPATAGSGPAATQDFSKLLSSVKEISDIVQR

Structure (SMILES) | Ki [2] | Ki [3] | Ki [4] | Ki (Activin receptor type-1) | Ki (Aurora kinase A) | Ki [5] | Ki [6] | Ki [7] | Ki [8] | Ki [9] | Ki [10] | AC50 [1] | AC50 (INS1)
O=C1/C(=C\c2cccc(O)c2O)SC(=S)N1Cc1ccccc1 | – | – | – | – | – | – | – | – | – | – | – | 1.26 µM (active) | –
CC(C)(C)c1cc[n+](C2=C([N-]S(=O)(=O)c3cccs3)C(=O)c3ccccc3C2=O)cc1 | – | – | – | – | – | – | – | – | – | – | – | 3.18 µM (active) | 2.04 µM (active)
CCc1ccc(S(=O)(=O)/N=C2\C=C(Nc3ccc(O)cc3)C(=O)c3ccccc32)cc1 | – | – | – | – | – | – | – | – | – | – | – | – | 0.981 µM (active)

Further lines, with some results ahead:

Ki [2] | Ki [3] | Ki [4] | Ki (Activin receptor type-1) | Ki (Aurora kinase A) | Ki [5] | Ki [6] | Ki [7] | Ki [8] | Ki [9] | Ki [10] | Structure (SMILES) | AC50 [1] | AC50 (INS1)
0.631 µM (active) | 2 µM (active) | 1.26 µM (active) | 1.26 µM (active) | 0.251 µM (active) | 0.126 µM (active) | 0.794 µM (active) | 3.16 µM (active) | 0.158 µM (active) | 3.16 µM (active) | 2 µM (active) | COc1c(-c2nc3ccccc3[nH]2)c(O)cc2oc(C)cc(=O)c12 | – | –
31.6 µM (active) | 79.4 µM (active) | 63.1 µM (active) | 50.1 µM (active) | > 63.1 µM (inactive) | 79.4 µM (active) | 100 µM (active) | 39.8 µM (active) | 39.8 µM (active) | – | 79.4 µM (active) | COC(=O)c1c(N)nc2ccccn12 | – | –
– | – | – | – | – | – | – | – | – | 0.631 µM (active) | – | Cc1ccc(F)c(NC(=O)Nc2ccc(-c3cccc4[nH]nc(N)c34)cc2)c1 [LINIFANIB] | – | –

From ChEMBL document CHEMBL1201862, “PubChem BioAssay data set” (2004)
